# Paper PMC13252604, “First Generation Proteolysis Targeting Chimeras (PROTACs) for the Treatment of Progeria” (Advanced Science, 2026)
# Legend:
# human serum albumin = human serum albumin (Homo sapiens, UniProt P02768); test: Human serum albumin binding
# Excerpt: TABLE 1 Pharmacokinetic parameters of PROTAC 2. | column: HSA binding ^c
# [1] = system: HGADFN167 Lmna^G608G/G608G fibroblasts; test: Senescence-associated β-galactosidase activity in human progeroid cells; type: cell-based; details: HGADFN167, 5 µM, 20 days
# Excerpt: FIGURE 6 (A) Representative cropped immunoblots and progerin quantification in human Lmna^G608G/G608G fibroblasts. MW, molecular weight (in kDa) markers. […] (B) PROTAC 2 increases cell proliferation (upper panels) and decreases the number of misshapen nuclei (lower panels). White arrows highlight selected misshapen nuclei. (C) PROTAC 2 decreases senescence‐associated β‐galactosidase (SA‐βgal) activity, interleukin (IL) 6, p16 and p21 senescent markers. Bar graphs show mean±sem of 2 (SA‐βgal and p21) or 3 (IL‐6 and p16) independent experiments performed in triplicate. (D) PROTAC 2 decreases phosphorylated histone 2AX (pH2AX) and increases trimethylated histone 3 (H3K9Me3) levels. (E) PROTAC 2 increases the oxygen consumption rate (OCR), ATP production and the number of healthy mitochondria in human progeroid cells. […] Data were analysed using one‐way ANOVA followed by Dunnett's post–hoc test vs vehicle (panel A) or vs G608G cells (panels B‐E). ^*, p < 0.05; ^**, p < 0.01; ^***, p < 0.001; ^****, p < 0.0001. […]
# compound exposure. […] Samples were analysed by electrophoresis in polyacrylamide gels (All Kd SDS-PAGE, BioRad) and the proteins transferred to nitrocellulose membranes (GE Healthcare, Amersham). […]
# GAPDH (Cell Signaling, 2118S, 1:5000) and anti-actin (Santa Cruz Biotechnology, sc-376248, 1:500) as antibodies for loading control. […] The bands were quantified by densitometry using the […]
# Lmna^G609G/G609G mice = test: In vivo treatment of progeroid Lmna^G609G/G609G mice; parameters: species or system mouse
# Description: Weight was monitored during this time and at the end of the period mice were sacrificed and tissue was harvested to determine if PROTAC administration induced a decrease in the levels of progerin in vivo.
# UHPLC with an oven temperature of 31.5 °C. The mass spectrometer ion optics were set in the multiple reaction monitoring mode and the transition selected for quantification […]
# For in vivo treatment, compound 2 was administrated at a concentration of 25 mg/kg diluted in sterile corn oil (Sigma-Aldrich) intraperitoneally three times per week starting at the age of 6 weeks. The same quantity of corn oil was injected to control […]
# LmnaG609G/G609G and Lmna+/+ mice. […]
# stress in mice. The weight of each mouse was registered 2 to 3 times per week during the duration of the treatment.
# After 7 weeks of treatment, mice were euthanized by CO2 inhalation. Immediately after sacrifice, tissues were harvested, frozen in dry ice, and kept at -80 °C until use. For immunoblot analysis, a portion of the corresponding tissue was homogenized, and the protein concentration was determined. Samples containing equivalent amounts of total protein were then subjected to polyacrylamide gel electrophoresis and analyzed as […]
# [2] = system: Lmna^G609G/G609G mouse fibroblasts; test: Cellular uptake by fluorescence microscopy; type: cell-based; details: intrinsic fluorescence, 5 μM
# Description: Supporting Figure S4. Cellular internalization of compounds 2 and 9. Live progeroid
# LmnaG609G/G609G mouse fibroblasts were incubated with 5 μM of indicated compound and
# images were taken every 5 minutes in a confocal fluorescence microscopy Olympus lx83
# (lexc = 420 nm; lem = 530 nm). Shown image corresponds to 100 min incubation. Scale […]
# human serum albumin, sequence (P02768 25-609): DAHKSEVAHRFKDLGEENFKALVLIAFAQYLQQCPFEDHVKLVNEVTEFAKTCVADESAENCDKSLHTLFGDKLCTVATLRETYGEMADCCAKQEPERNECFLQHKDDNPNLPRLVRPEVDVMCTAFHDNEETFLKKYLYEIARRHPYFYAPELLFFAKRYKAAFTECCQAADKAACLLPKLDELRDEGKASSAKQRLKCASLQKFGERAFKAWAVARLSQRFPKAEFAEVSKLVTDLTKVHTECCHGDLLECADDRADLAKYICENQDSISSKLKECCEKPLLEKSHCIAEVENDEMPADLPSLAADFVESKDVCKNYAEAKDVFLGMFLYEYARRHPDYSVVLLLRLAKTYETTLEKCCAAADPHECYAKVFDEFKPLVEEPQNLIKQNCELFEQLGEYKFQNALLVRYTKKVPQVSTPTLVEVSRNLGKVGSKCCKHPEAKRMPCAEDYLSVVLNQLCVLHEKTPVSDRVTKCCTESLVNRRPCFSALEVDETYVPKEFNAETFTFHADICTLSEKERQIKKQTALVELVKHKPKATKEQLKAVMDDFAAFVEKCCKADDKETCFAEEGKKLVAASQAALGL
compound,measurement,setting,value
CC1(C)Oc2cc3oc(=O)ccc3cc2C[C@@H]1OC(=O)CCCCCNc1cccc2c1C(=O)N(C1CCC(=O)NC1=O)C2=O (some centres unmarked) [compound 2],HSA binding,human serum albumin,99%
same,Kd,human serum albumin; read-out: HSA binding K D,5.8 µM
same,SA‐βgal senescent marker,[1],significantly reduced
same,apparent damage or stress in mice,Lmna^G609G/G609G mice; 25 mg/kg i.p. in corn oil three times per week,did not produce any apparent damage or stress in mice
same,body weight,"Lmna^G609G/G609G mice; Lmna^G609G/G609G mice, 25 mg/kg i.p. three times per week, seven weeks",trend toward improved body weight
same,H3K9Me3 levels in vivo,"Lmna^G609G/G609G mice; liver, Lmna^G609G/G609G mice, 25 mg/kg i.p. three times per week, 7 weeks",increased levels of H3K9Me3
same,progerin levels in vivo,"Lmna^G609G/G609G mice; lung, Lmna^G609G/G609G mice, 25 mg/kg i.p. three times per week, 7 weeks",reduced levels of progerin
same,cellular uptake,[2],confirmed
